Usually IC50 stands for the point on the concentration scale where inhibition reaches its midpoint.

Assay [1] addresses T1, BRD4 (Homo sapiens, UniProt O60885).
T1 construct: residues 42–168, BRD4-BD1 (N-terminal bromodomain)
Nature of the assay: X-ray crystal structure at […] Å (soaked crystals); IC50 from AlphaScreen. It counts as binding.

Assay [2] has as its target BRD2 (Homo sapiens, UniProt P25440). Nature of the assay: AlphaScreen binding inhibition assay with recombinant human BRD2.

Sequence of BRD2 (P25440 whole entry): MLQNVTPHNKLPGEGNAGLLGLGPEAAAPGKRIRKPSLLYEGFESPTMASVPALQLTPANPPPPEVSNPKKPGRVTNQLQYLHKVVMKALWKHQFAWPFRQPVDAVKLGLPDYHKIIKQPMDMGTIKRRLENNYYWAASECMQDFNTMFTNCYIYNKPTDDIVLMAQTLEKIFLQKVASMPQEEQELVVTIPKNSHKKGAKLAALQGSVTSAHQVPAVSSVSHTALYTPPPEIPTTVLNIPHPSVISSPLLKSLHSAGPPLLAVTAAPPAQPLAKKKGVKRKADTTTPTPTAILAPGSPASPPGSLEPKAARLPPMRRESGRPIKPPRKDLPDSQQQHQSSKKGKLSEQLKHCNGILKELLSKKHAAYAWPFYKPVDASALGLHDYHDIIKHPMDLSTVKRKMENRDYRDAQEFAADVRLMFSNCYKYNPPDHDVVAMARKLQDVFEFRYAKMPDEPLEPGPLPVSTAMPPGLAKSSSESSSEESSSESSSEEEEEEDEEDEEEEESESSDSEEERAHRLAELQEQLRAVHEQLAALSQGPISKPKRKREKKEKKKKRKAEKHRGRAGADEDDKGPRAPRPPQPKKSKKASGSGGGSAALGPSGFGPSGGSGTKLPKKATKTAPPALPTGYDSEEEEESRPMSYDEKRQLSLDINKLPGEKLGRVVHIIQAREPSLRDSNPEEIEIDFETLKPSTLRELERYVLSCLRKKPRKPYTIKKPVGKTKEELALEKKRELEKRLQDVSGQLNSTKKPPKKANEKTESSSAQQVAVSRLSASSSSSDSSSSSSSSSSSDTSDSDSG

Take `CC(=O)N(C)C` [DMA, N,N-Dimethylacetamide]: the values for the half-inhibitory concentration (IC50) in assay [1] and in assay [2] were 6 mM and 11 mM, respectively.
